These results are taken from ChEMBL document CHEMBL2169754, “Imidazo[1,2-a]pyridines That Directly Interact with Hepatitis C NS4B: Initial Preclinical Characterization” (ACS Med Chem Lett, 2012).

The nature of data set [1]: Solubility of the compound. It is filed as physicochemical.
For data set [2], the system named is Hepatitis C virus. Kind of data set: Antiviral activity against wild type HCV genotype 1a infected in human HuH7 cells after 48 hrs by luciferase reporter gene assay. It is filed as functional, organism-based, Hepacivirus hominis. Particulars: subtype 1a, Huh-7, 48 h. (In general: A reporter such as luciferase makes a cellular process visible.)
Data set [3] relates to Hepatitis C virus. Kind of data set: Antiviral activity against wild type HCV genotype 1b infected in human HuH7 cells after 48 hrs by luciferase reporter gene assay. It is filed as functional, organism-based, Hepacivirus hominis. Particulars: Huh-7, 48 h; call rule not given here.
Data set [4] deals with Hepatitis C virus. The data set is described as follows: Displacement of [3H]-3-(1-(3-chloro-6-isopropyl-8-(trifluoromethyl)imidazo[1,2-a]pyridine-2-carbonyl)piperidin-4-yl)oxazolidin-2-one from HCV genotype 1b His6-tagged NS4B expressed in baculovirus infected Sf9 cells after overnight incubation. Also noted: species or system Hepatitis C virus subtype 1b. A general note: Loss of bound radioactivity is the signal in a displacement assay; it reports binding, not function.

The subject of data set [5] is Hepatitis C virus. The data set is described as follows: Binding affinity to HCV genotype 1b His6-tagged NS4B expressed in baculovirus infected Sf9 cells after overnight incubation. Particulars: Hepatitis C virus subtype 1b, tested as the 3H-labelled form.
Data set [6] concerns Hepatocyte. The data set is described as follows: Drug metabolism in human hepatocytes assessed as pendant cyclohexyl oxidation. It is filed as ADME, cell-based.
The test system of data set [7] is Hepatocyte. The data set is described as follows: Drug metabolism in rat hepatocytes assessed as pendant cyclohexyl oxidation. It is filed as ADME, cell-based.
Data set [8] can be described thus: AUC (0 to 24 hrs) in Sprague-Dawley rat at 5 mg/kg, po. It is filed as ADME, organism-based. Also on record: time < 24 hr, dose 5 mg/kg, route oral. Particulars: plasma.
Data set [9] is described as follows: Oral bioavailability in Sprague-Dawley rat at 5 mg/kg. Format: ADME, organism-based. Particulars: in vivo.
A short description of data set [10]: Half life in Sprague-Dawley rat at 5 mg/kg, po. It is filed as ADME, organism-based. Also noted: dose 5 mg/kg, route oral. Particulars: in vivo.
A short description of data set [11]: Clearance in Sprague-Dawley rat at 1 mg/kg, iv. Also on record: dose 1 mg/kg, route intravenous. It is filed as ADME, organism-based. Particulars: in vivo.
The nature of data set [12]: Volume of distribution at steady state in Sprague-Dawley rat at 1 mg/kg, iv. Particulars: in vivo, read-out: Vdss. Also noted: dose 1 mg/kg, route intravenous. Format: ADME, organism-based.

As usually defined, the solubility is the dissolved amount per volume that the medium holds. Read a high solubility as much dissolved substance. The EC50 is the concentration giving half of the maximal effect. Read a low EC50 as greater potency. One may read the IC50 as the concentration that inhibits the measured activity by half. Read a low IC50 as greater potency in that assay. The AUC(0-t) is the area under the concentration-time curve up to a stated or last time point. Lower therefore signals low exposure. A word on the bioavailability: it is dose-corrected exposure relative to a reference, in per cent. A high value points to good availability. For orientation: half-life means the time in which the quantity being followed falls by half. A lower half-life goes with fast loss. The clearance is a measure of how efficiently the substance is removed, as volume per time. A higher clearance goes with a high capacity for elimination.

In turn, `O=C(c1nc2c(C(F)(F)F)cc(-c3ccoc3)cn2c1Cl)N1CCC(N2CCCC2=O)CC1` returned a solubility in [1] greater than 500 µM. The figures for the 50% effective concentration (EC50) in the data set with Hepatitis C virus [2] and in the data set on Hepatitis C virus [3] were 0.26 µM and 0.09 µM, respectively. The compound further returned an IC50 in the data set with Hepatitis C virus [4] of 0.17 µM.
Consider `O=C(c1nc2c(C(F)(F)F)cc(-c3ccoc3)cn2c1Cl)N1CCN(c2ccccc2)C(=O)C1`, for which the EC50 turned out to be 0.43 µM in the data set with Hepatitis C virus [2] and 0.16 µM in the data set on Hepatitis C virus [3]. In the data set on Hepatitis C virus [4], this compound showed an IC50 of 0.024 µM.
In the same order, the values of `O=C(NCc1cccs1)c1cc2nc(-c3ccco3)cc(C(F)(F)Cl)n2n1` [ANGUIZOLE] are 0.74 µM, 0.45 µM and 0.022 µM.
`CC1(C)COC(=O)N1C1CCN(C(=O)c2nc3c(C(F)(F)F)cc(-c4ccoc4)cn3c2Cl)CC1`: the solubility in data set [1] is greater than 500 µM. Also, the EC50 in the data set on Hepatitis C virus [2] was 33 µM; in the data set on Hepatitis C virus [3] it was 31 µM. Moreover, the IC50 in the data set with Hepatitis C virus [4] came out at 9 µM.
`O=C(c1nc2c(C(F)(F)F)cc(-c3ccoc3)cn2c1Cl)N1CCC(c2ccncc2)C1` (racemic): the EC50 in the data set on Hepatitis C virus [2] worked out at 0.38 µM; in the data set with Hepatitis C virus [3], 0.27 µM. In addition, the IC50 with Hepatitis C virus [4] turned out to be 0.025 µM.
Consider `O=C(c1nc2c(C(F)(F)F)cc(-c3cn[nH]c3)cn2c1Br)N1CCC(c2cccs2)C1` (stereo not drawn), for which the EC50 with Hepatitis C virus [2] and in the data set with Hepatitis C virus [3] was less than 0.055 µM throughout. This compound gave a Kapp with Hepatitis C virus [5] of 76 nM.
`O=C(c1nc2c(C(F)(F)F)cc(-c3ccoc3)cn2c1Cl)N1CCC(c2cccs2)C1` (racemic): in data set [1], the solubility was less than 15 µM. For the same compound, the EC50 stood at 0.77 µM with Hepatitis C virus [2] and 0.067 µM with Hepatitis C virus [3]. The same compound yielded an IC50 with Hepatitis C virus [4] of 0.012 µM.
Regarding `O=C(c1nc2c(C(F)(F)F)cc(-c3ccoc3)cn2c1Cl)N1CCN(C2CCCCC2)C(=O)C1`, the Drug metabolism result in the data set with Hepatocyte [6] and in the data set on Hepatocyte [7] was “Active” throughout. The compound further showed a solubility in [1] greater than 500 µM. The EC50 with Hepatitis C virus [2] worked out at 0.011 µM; in the data set with Hepatitis C virus [3], 0.0035 µM. Besides, in the data set with Hepatitis C virus [4], the IC50 was found to be 0.0056 µM.
`O=C(c1nc2c(C(F)(F)F)cc(-c3ccoc3)cn2c1Cl)N1CCC(N2CCCC2)CC1` gave a solubility in data set [1] greater than 500 µM. Besides, the EC50 in the data set with Hepatitis C virus [2] and with Hepatitis C virus [3] was greater than 50 µM each time. Further, in the data set with Hepatitis C virus [4], the IC50 was greater than 50 µM.
`O=C(c1nc2c(C(F)(F)F)cc(-c3ccoc3)cn2c1Cl)N1CCC(N2C(=O)COC2=O)CC1` returned an AUC(0-t) at 24 h in data set [8] of 1.1 µg·h/mL. For the same compound, in data set [9], the bioavailability turned out to be 60%. In addition, the half-life in [10] is 3 h. This compound also registered a clearance in data set [11] of 2.76 L/h/kg. Further, the Vd in data set [12] was 3.1 L/kg. In data set [1], this compound showed a solubility greater than 500 µM. Further, the EC50 in the data set with Hepatitis C virus [2] turned out to be 0.02 µM; with Hepatitis C virus [3] it was 0.051 µM. The compound also displayed an IC50 in the data set on Hepatitis C virus [4] of 0.035 µM.
